Measured values from US20160136286A1, “DRUG DELIVERY COMPOSITION” (The Queen's University of Belfast, priority 2008, published 2016).

Columns and labels:
[1] = solution in acetonitrile exposed to alternating periods of light and dark (365 nm), progress of drug liberation monitored; type: physicochemical; conditions: six alternating periods (FIG. 2)
Description: A solution of 2 in acetonitrile was then exposed to alternating periods of light and dark using the same conditions for light conditions as previously. […] The dose of liberated drug thus correlates with the duration of exposure to light. In this example, six periods of dosing and nondosing are alternated; this can be extended to any discrete dose required, in principle to the level of control provided from the light source, which includes molecule-scale control from low bursts of light deliverable from a laser source.

[2] = irradiation of a solution of the conjugate with 365 nm UV-A radiation, followed by UV-visible spectra; type: physicochemical; conditions: solution irradiated with 365 nm UV-A; judged from isosbestic points at 231 and 262 nm (FIG. 1)
Description: The behaviour of 2-4 is characterised by irradiating a solution using 365 nm UV-A radiation. As the photochemical reaction proceeds, the UV-visible spectrum of the reaction mixture changes (FIG. 1), reflecting the formation of 1 and drug and the consumption of conjugate. […] The identity of reaction products was verified by chromatographic separation, followed by spectroscopic analysis to be solely the corresponding drug and 1. The reaction proceeded in an analogous fashion to related nondrug examples 12 and all three conjugates 2-4 behaved similarly.

Row | drug liberation reaction under light conditions ([1]; 365 nm light periods) | liberation of drug in dark conditions ([1]; dark periods) | side products of the photochemical reaction [2] | SMILES
1 | proceeds | stopped completely |  | COc1cc(OC)cc(C(OC(=O)c2ccccc2OC(C)=O)C(=O)c2ccccc2)c1 (stereo not drawn) [Compound 2]
2 |  |  | no side products | COc1cc(OC)cc(C(OC(=O)C(C)c2ccc(CC(C)C)cc2)C(=O)c2ccccc2)c1 (stereo not drawn) [Compound 3]
